Source: patent US20260317319A1, “NOVEL ERGOLINES AND METHODS OF TREATING MOOD DISORDERS” (Gilgamesh Pharma Inc., priority 2023, published 2026)
pEC50, pKi: −log10 of the molar value. Read-outs that look alike come from different tables or passages of the source.

What was measured:
5-HT2B receptor = target: T1, 5-HT2B receptor (Homo sapiens, UniProt P41595); experiment: cell-based; type: cell-based; details: Ca2+ flux; for pEC50: HEK293; for Emax: HEK293, agonist, read-out: 5-HT2B % Act @ Max Dose
T1 construct: expressed in transfected cells; host or cells: HEK293, stably transfected
T1 sequence (P41595 whole entry): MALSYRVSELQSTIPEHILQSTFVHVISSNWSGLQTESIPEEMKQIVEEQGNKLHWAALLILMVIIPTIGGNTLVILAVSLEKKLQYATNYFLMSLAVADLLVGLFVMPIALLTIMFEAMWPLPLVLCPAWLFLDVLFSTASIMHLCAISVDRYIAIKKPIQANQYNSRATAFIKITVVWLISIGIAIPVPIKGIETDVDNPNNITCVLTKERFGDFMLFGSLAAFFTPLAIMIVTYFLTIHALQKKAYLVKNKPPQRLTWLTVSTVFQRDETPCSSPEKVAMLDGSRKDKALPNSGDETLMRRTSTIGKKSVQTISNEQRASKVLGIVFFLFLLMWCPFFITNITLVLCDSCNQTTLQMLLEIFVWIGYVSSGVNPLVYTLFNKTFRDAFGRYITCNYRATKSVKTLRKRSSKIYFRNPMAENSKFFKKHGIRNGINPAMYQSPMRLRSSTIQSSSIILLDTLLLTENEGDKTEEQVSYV
Method in brief: (§1)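 FLIPR Tetra fluorescence read-out of calcium flux after compound addition. Receptor-expressing stable lines were used (HEK293 for 2A/2B; CHO with Gα15 for 1A), dye-loaded with Fluo-4 Direct and 2.5 mM final probenecid, 50 min at 37 °C.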

5-HT2A receptor [1] = target: T2, 5-HT2A receptor (Homo sapiens, UniProt P28223); experiment: biochemical; type: binding; parameters: expressed in transfected cells; host or cells: HEK293, stably transfected; details: [3H]ketanserin 1 nM; HEK293 stable cell line; 1 h, 25 °C
T2 sequence (P28223 whole entry): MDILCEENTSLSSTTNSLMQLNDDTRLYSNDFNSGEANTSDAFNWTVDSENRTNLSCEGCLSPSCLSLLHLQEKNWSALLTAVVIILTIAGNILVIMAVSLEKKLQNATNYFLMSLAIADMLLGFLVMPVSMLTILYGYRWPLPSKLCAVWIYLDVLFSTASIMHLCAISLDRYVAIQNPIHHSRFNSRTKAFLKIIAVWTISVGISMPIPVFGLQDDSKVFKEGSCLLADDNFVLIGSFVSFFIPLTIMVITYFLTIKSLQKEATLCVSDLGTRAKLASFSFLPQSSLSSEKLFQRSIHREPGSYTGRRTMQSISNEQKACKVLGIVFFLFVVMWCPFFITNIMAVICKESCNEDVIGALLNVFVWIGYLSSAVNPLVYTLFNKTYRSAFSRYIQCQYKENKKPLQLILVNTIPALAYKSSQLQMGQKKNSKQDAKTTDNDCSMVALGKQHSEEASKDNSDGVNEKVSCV
Method in brief: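 Binding affinity comes from a [^3H]ketanserin radioligand assay run under literature-adapted conditions.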

in vitro [2] = type: in vitro ADME, human; details: HLM 0.50 mg/mL, NADPH 1 mM, 1 μM compound, pH 7.4, 37° C., 60 min; for microsomal CLint / half-life: human, microsomes; for microsomal CLint: read-out: Intrinsic clearance (Clint); for half-life: read-out: half-life (t1/2)
in vitro [3] = type: in vitro ADME, rat; details: RLM (male Sprague-Dawley) 0.50 mg/mL, NADPH 1 mM, 1 μM compound, pH 7.4, 37° C., 60 min; for microsomal CLint / half-life: rat, microsomes; for microsomal CLint: read-out: Intrinsic clearance (Clint); for half-life: read-out: half-life (t1/2)
Description: RLM Stability Pooled RLM from male Sprague-Dawley rats (Xenotech R1000) were used.

5-HT2A receptor [4] = target: T2, 5-HT2A receptor; experiment: cell-based; type: cell-based; parameters: expressed in transfected cells; host or cells: HEK293, stably transfected; details: Ca2+ flux; for pEC50: HEK293; for Emax: HEK293, agonist, read-out: 5-HT2A % Act @ Max Dose
Method in brief: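 Receptor agonism was assessed as intracellular calcium mobilization in stably transfected cells, with CHO cells additionally carrying Gα15 for the 5-HT1A readout. Calcium was monitored with Fluo-4 Direct dye.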

in vitro [5] = type: in vitro ADME, mouse; details: MLM (male CD-1) 0.50 mg/mL, NADPH 1 mM, 1 μM compound, pH 7.4, 37° C., 60 min; for microsomal CLint / half-life: mouse, microsomes; for microsomal CLint: read-out: Intrinsic clearance (Clint); for half-life: read-out: half-life (t1/2)
Description: MLM Stability Pooled MLM from male CD-1 mice (BIOIVT M00501) were used.

5-HT2C receptor [6] = target: T3, 5-HT2C receptor (Homo sapiens, UniProt P28335); experiment: cell-based; details: agonist, Ca2+ flux, Eurofins DiscoverX protocol; for pEC50: read-out: 5-HT2C EC50; for Emax: max dose, read-out: 5-HT2C % Act @ Max Dose
T3 sequence (P28335 33-458): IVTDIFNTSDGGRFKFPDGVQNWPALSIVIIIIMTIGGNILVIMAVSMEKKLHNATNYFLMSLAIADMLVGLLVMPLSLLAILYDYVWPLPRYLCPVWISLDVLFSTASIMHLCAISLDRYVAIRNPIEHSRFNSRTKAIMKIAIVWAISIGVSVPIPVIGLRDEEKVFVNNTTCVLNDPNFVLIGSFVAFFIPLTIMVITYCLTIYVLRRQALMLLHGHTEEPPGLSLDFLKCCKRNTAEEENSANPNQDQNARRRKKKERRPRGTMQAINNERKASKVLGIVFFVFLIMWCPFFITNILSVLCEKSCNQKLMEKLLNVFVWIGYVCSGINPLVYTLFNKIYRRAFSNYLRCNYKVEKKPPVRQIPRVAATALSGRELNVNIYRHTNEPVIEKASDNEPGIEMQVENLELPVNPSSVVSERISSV

5-HT1A receptor = target: T4, 5-HT1A receptor (Homo sapiens, UniProt P08908); experiment: cell-based; details: agonist, Ca2+ flux; for Emax: CHO, read-out: 5-HT1A % Act @ Max Dose; for pEC50: CHO cells with Gα15
T4 construct: expressed in transfected cells; host or cells: CHO cells, stably transfected
T4 sequence (P08908 1-422): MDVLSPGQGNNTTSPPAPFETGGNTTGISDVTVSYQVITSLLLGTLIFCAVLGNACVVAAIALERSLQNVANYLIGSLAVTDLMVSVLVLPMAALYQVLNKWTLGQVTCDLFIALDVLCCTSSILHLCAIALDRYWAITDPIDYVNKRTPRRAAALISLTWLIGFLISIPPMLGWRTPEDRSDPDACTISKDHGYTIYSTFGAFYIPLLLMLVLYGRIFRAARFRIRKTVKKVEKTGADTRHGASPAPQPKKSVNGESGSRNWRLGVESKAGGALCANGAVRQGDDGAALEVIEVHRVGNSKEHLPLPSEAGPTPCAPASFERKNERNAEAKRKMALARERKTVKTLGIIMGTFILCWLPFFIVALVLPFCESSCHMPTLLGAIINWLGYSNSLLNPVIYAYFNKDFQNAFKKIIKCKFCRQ
Method in brief: as §1

5-HT2C receptor [7] = target: T3, 5-HT2C receptor; experiment: Ca2+ flux functional assay at 5-HT2C (WuXi 5-HT2C protocol); type: cell-based; parameters: expressed in transfected cells
Method: Disclosed compounds were tested for agonist activity at several serotonin receptor subtypes (5-HT2A, […], 5-HT2C, and 5-HT1A) using Ca^2+ flux functional assays and the 5-HT1B receptor using a cAMP accumulation assay, with the results summarized in Table 4. […] Potent agonist activity was also observed at the other serotonin receptors tested, although the selectivity profile among the receptors varied across compounds. […] However, at the same time, the N-propyl compounds were more efficacious agonists at 5-HT2B than the corresponding N-methyl compounds. The selectivity of disclosed compounds for 5-HT2A over 5-HT2C and 5-HT1A was less predictable and varied widely across compounds. […] An azetidinyl amide substituent tended to increase potency at 5-HT1A relative to 5-HT2A.
Functional Assays at 5-HT2A, 5-HT2B, and 5-HT1A. Agonist activity at 5-HT2A, 5-HT2B, 5HT2C and 5-HT1A receptors was determined using a FLIPR Ca^2+ flux assay at WuXi AppTec (Hong Kong) Limited according to their standard protocols. Briefly, stably transfected cells expressing the receptor of interest and Gα15 in the case of 5-HT1A (HEK293 for 5-HT2A and 5-HT2B; CHO cells for 5-HT1A) were grown and plated in a 384 well plate and incubated at 37° C. and 5% CO2 overnight. A solution of 250 mM probenecid in 1 mL FLIPR assay buffer was prepared fresh. This was combined with a fluorescent dye (Fluo-4 Direct™) to make a final assay concentration of 2.5 mM. Compounds were diluted 1:3.16 for 10 points and 750 nL was added to a 384 well compound plate using ECHO along with 30 μL assay buffer. The fluorescent dye was then added to the assay plate along with assay buffer to a final volume of 40 μL. The cell plate was incubated for 50 min at 37° C. and 5% CO2 and placed into the FLIPR Tetra along with the compound plate. 10 μL of references and compounds were then transferred from the compound plate into the cell plate and the fluorescent signal was read.

5-HT1B receptor = target: T5, 5-HT1B receptor (Homo sapiens, UniProt P28222); experiment: cAMP accumulation functional assay at 5-HT1B; type: cell-based; details: agonist, cAMP accumulation
T5 construct: expressed in transfected cells
T5 sequence (P28222 whole entry): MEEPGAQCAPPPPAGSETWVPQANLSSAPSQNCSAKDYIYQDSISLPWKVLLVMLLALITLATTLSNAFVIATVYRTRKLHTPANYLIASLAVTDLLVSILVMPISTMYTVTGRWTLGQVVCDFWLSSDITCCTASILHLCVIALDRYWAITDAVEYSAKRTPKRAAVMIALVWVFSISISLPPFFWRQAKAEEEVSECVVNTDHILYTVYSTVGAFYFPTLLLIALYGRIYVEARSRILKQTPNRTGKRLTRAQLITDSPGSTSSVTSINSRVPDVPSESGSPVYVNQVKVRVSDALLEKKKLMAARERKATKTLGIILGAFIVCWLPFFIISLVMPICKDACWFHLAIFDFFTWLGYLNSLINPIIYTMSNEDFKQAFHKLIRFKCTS
Method in brief: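 Agonist activity measured as cAMP accumulation in cells stably transfected with human 5-HT1B. Cells incubated 60 min at RT, then detection reagent added for a further 60 min at RT before plate reading.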

Row | SMILES | pEC50 (5-HT2B receptor; agonist) | pKi (5-HT2A receptor [1]) | microsomal CLint (in vitro [2]) | half-life (in vitro [2]) | microsomal CLint (in vitro [3]) | half-life (in vitro [3]) | pEC50 (5-HT2A receptor [4]; agonist) | microsomal CLint (in vitro [5]) | half-life (in vitro [5]) | pEC50 (5-HT2C receptor [6]) | Emax (5-HT1A receptor; CHO cells with Gα15, max dose) | pEC50 (5-HT1A receptor) | Emax (5-HT2B receptor; HEK293, max dose) | Emax (5-HT2A receptor [4]; HEK293, max dose) | Emax (5-HT2C receptor [6]) | also measured
1 | CCN(CC)C(=O)[C@@H]1C=C2c3cccc4[nH]cc(c34)C[C@H]2N(Cc2ccc(C)cc2)C1 [Compound 97, (6aR,9R)—N,N-diethyl-7-(4-methylbenzyl)-4,6,6a,7,8,9-hexahydroindolo[4,3-fg]quinoline-9-carboxamide] | 7.78 | 7.64 | 63.5 µL/min/mg | 21.8 min | 532 µL/min/mg | 2.6 min | 7.64 | 511 µL/min/mg | 2.7 min | 8.39 | 84.5% | < 4.00 | – | – | – | –
2 | CCN(CC)C(=O)[C@@H]1C=C2c3cccc4[nH]cc(c34)C[C@H]2N(Cc2cccc(F)c2)C1 [Compound 52, (6aR,9R)—N,N-diethyl-7-(3-fluorobenzyl)-4,6,6a,7,8,9-hexahydroindolo[4,3-fg]quinoline-9-carboxamide] | < 5.00 | 8.27 | 77.9 µL/min/mg | 17.8 min | 302 µL/min/mg | 4.6 min | 6.33 | 338 µL/min/mg | 4.1 min | < 5.00 | 93% | 5.10 | 4.22% | 81.7% | 14.5% | –
3 | CCN(CC)C(=O)[C@@H]1C=C2c3cccc4[nH]cc(c34)C[C@H]2N(Cc2ccccc2C)C1 [Compound 99, (6aR,9R)—N,N-diethyl-7-(2-methylbenzyl)-4,6,6a,7,8,9-hexahydroindolo[4,3-fg]quinoline-9-carboxamide] | < 5.00 | 8.04 | 86.4 µL/min/mg | 16 min | 174 µL/min/mg | 8 min | 5.92 | 426 µL/min/mg | 3.3 min | – | 69.9% | 4.71 | 1.41% | 73.6% | – | pEC50 (5-HT2C receptor [7]): < 5.00; Emax (5-HT2C receptor [7]; agonist, tested using WuXi 5-HT2C protocol, max dose, read-out: 5-HT2C % Act @ Max Dose (* WuXi protocol)): 0.56%
4 | CCN(CC)C(=O)[C@@H]1C=C2c3cccc4[nH]cc(c34)C[C@H]2N(Cc2ccc(F)c(F)c2)C1 [Compound 54, (6aR,9R)-7-(3,4-difluorobenzyl)-N,N-diethyl-4,6,6a,7,8,9-hexahydroindolo[4,3-fg]quinoline-9-carboxamide] | < 5.00 | 8.27 | 73.9 µL/min/mg | 18.7 min | 110 µL/min/mg | 12.6 min | 5.73 | 242 µL/min/mg | 5.7 min | < 5.00 | 51% | < 4.00 | 0.91% | 59.2% | 8.36% | –
5 | CCN(CC)C(=O)[C@@H]1C=C2c3cccc4[nH]cc(c34)C[C@H]2N(Cc2ccnc(OC)c2)C1 [Compound 79] | < 5.00 | 6.74 | – | – | – | – | 5.60 | – | – | – | – | 5.09 | – | – | – | 5-HT2B % Act @ Max Dose (5-HT2B receptor; agonist, HEK293, max dose): 1.38%; pEC50 (5-HT2C receptor [7]; agonist, Ca2+ flux, tested using WuXi 5-HT2C protocol, read-out: 5-HT2C EC50 (* WuXi protocol)): < 5.00; 5-HT2C % Act @ Max Dose (* WuXi protocol) (5-HT2C receptor [7]; agonist, tested using WuXi 5-HT2C protocol, max dose): 0.60* %; Intrinsic clearance (Clint) (in vitro [2]): 61.2 µL/min/mg; half-life (t1/2) (in vitro [2]): 22.7 min; Intrinsic clearance (Clint) (in vitro [3]): 80.5 µL/min/mg; half-life (t1/2) (in vitro [3]): 17.2 min; 5-HT2A % Act @ Max Dose (5-HT2A receptor [4]; agonist, HEK293, max dose): 68.17%; Intrinsic clearance (Clint) (in vitro [5]): 298.4 µL/min/mg; half-life (t1/2) (in vitro [5]): 4.6 min; pEC50 (5-HT1B receptor): < 5.00; 5-HT1B % Act @ Max Dose (5-HT1B receptor; max dose): 42.45%; 5-HT1A % Act @ Max Dose (5-HT1A receptor; CHO cells with Gα15, max dose): 77.71%
